Reference: US7056940B2, “Insecticidal 3-(2,6-disubstituted phenyl)-5-[5-arylthien-2-yl]-1,2,4-triazoles” (Dow AgroSciences LLC, priority 2001, dated 2006)

Assays:
[1] = test system: Beet Armyworm (Spodoptera exigua); assay: Insecticidal test for beet armyworm, treated lepidopteran diet; type: in vivo; parameters: key: A: 90–100; B: 80–89; C: 70–79; D: 60–69; E: 50–59; F: less than 50; G: Inactive; conditions: on diet surface, second-instar larvae, 5 days
How it was run: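 Test compound formulated at 400 ppm in 2:1 acetone:tap water; 250 μL applied onto surface of modified Shorey lepidopteran diet, five cups per compound (one cup = one replicate). After solvent air-dried, one second-instar larva placed on treated diet per cup.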

[2] = test system: Two-spotted Spider Mite (Tetranychus urticae); assay: Insecticidal test for two-spotted spider mite, ovicide method; type: in vivo; parameters: key: A: 90–100; B: 80–89; C: 70–79; D: 60–69; E: 50–59; F: less than 50; G: Inactive; conditions: cotton leaf discs, 6 days
How it was run: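 Cotton leaf discs (eight, 2.2 cm each) received ten adult female two-spotted spider mites, which laid eggs for 24 hours before being taken off. The discs were then set on an agar substrate and kept at 24° C. and 90% RH for 6 days to assess ovicidal control.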

[3] = test system: Cabbage Looper (Trichoplusia ni); assay: Insecticidal test for cabbage looper, treated cabbage leaf disc; type: in vivo; parameters: key: A: 90–100; B: 80–89; C: 70–79; D: 60–69; E: 50–59; F: less than 50; G: Inactive; conditions: cabbage leaf-dip, 2nd instar larvae, 5 days
[4] = test system: Sweetpotato Whitefly (Bemisia tabacia); assay: Insecticidal test for sweetpotato whitefly, spray on cotton plants; type: in vivo; parameters: key: A: 90–100; B: 80–89; C: 70–79; D: 60–69; E: 50–59; F: less than 50; G: Inactive; conditions: 200 ppm spray, 13 days, large nymphs
How it was run: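 Five-week cotton plants trimmed to two leaves carried 2 days of whitefly oviposition, then adults were removed. Leaves were sprayed top and bottom with 200 ppm compound in water with 0.05% Tween 20 (acetone:ethanol co-solvent), four replicates. After 13 days at 28° C/60% RH, 3rd–4th instar nymphs were counted; percent control versus solvent-only sprayed plants.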

[5] = test system: Cotton Aphid (Aphis gossypii); assay: Insecticidal test for cotton aphid, spray on infested squash cotyledons; type: in vivo; conditions: 50 ppm spray, 3 days
How it was run: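 Squash cotyledons were infested with all aphid life stages 16–20 h beforehand, then sprayed on both sides to runoff with 50 ppm compound (acetone:ethanol, 0.05% Tween 20). After 3 days at 26 °C and 40% RH, aphids were counted under a microscope, and percent control is population reduction versus untreated.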

[6] = test system: Tobacco Budworm (Heliothis virescens); assay: Insecticidal test for tobacco budworm, treated cotton cotyledon leaf disc; type: in vivo; parameters: key: A: 90–100; B: 80–89; C: 70–79; D: 60–69; E: 50–59; F: less than 50; G: Inactive; conditions: cotton cotyledon leaf-dip, 2nd instar larvae, 5 days

Row | melting point | Structure (SMILES) | BAW: activity at 400 ppm against beet armyworm (% control rating) [1] | SM: activity against two-spotted spider mite (% control rating) [2] | CL: activity at 400 ppm against cabbage looper (% control rating) [3] | WF: activity at 200 ppm against whitefly (% control rating) [4] | CA: activity at 50 ppm against cotton aphid (% control rating) [5] | TBW: activity at 400 ppm against tobacco budworm (% control rating) [6]
1 | 124 to 125 °C | Cc1c(-c2nc(-c3c(F)cccc3Cl)nn2C)csc1-c1ccc(OC(F)(F)F)cc1 [Example 1, 3-(2-Chloro-6-fluorophenyl)-5-[4-methyl-5-(4-trifluoromethoxyphenyl)thien-3-yl]-1-methyl-1H-1,2,4-triazole] | – | – | – | – | – | –
2 | 153 to 155 °C | Cc1sc(-c2ccc(OC(F)(F)F)cc2)cc1-c1nc(-c2c(F)cccc2Cl)nn1C [Example 4, 3-(2-Chloro-6-fluorophenyl)-5-[2-methyl-5-(4-trifluoromethoxyphenyl)thien-3-yl]-1-methyl-1H-1,2,4-triazole] | – | – | – | – | – | –
3 | – | Cc1sc(-c2ccc(C(F)(F)F)cc2F)cc1-c1nc(-c2c(F)cccc2Cl)nn1C | A (90–100) | B (80–89) | A (90–100) | G | F (less than 50) | G
4 | – | Cc1c(-c2nc(-c3c(F)cccc3Cl)nn2C)csc1-c1ccc(Cl)c(F)c1 | F (less than 50) | A (90–100) | A (90–100) | G | A (90–100) | G
5 | – | Cc1c(-c2nc(-c3c(F)cccc3Cl)nn2C)csc1-c1ccc(F)cc1 | G | B (80–89) | D (60–69) | F (less than 50) | B (80–89) | F (less than 50)
6 | – | COCCOc1ccc(-c2scc(-c3nc(-c4c(F)cccc4Cl)nn3C)c2C)cc1 | B (80–89) | D (60–69) | B (80–89) | F (less than 50) | C (70–79) | G
7 | – | Cc1cc(-c2ccc(F)cc2)sc1-c1nc(-c2c(F)cccc2Cl)nn1C | D (60–69) | A (90–100) | A (90–100) | G | B (80–89) | F (less than 50)
8 | – | Cc1c(-c2nc(-c3c(F)cccc3Cl)nn2C)csc1-c1ccc(OC(F)(F)F)cc1F | A (90–100) | F (less than 50) | A (90–100) | A (90–100) | B (80–89) | A (90–100)
9 | – | Cc1cc(-c2ccc(Cl)c(F)c2)sc1-c1nc(-c2c(F)cccc2Cl)nn1C | A (90–100) | A (90–100) | A (90–100) | G | A (90–100) | B (80–89)
10 | – | Cc1cc(-c2cccc(C(F)(F)F)c2F)sc1-c1nc(-c2c(F)cccc2Cl)nn1C | A (90–100) | A (90–100) | A (90–100) | G | D (60–69) | D (60–69)
11 | – | Cc1c(-c2nc(-c3c(F)cccc3Cl)nn2C)csc1-c1ccc(OC(F)(F)C(Cl)Cl)cc1 | A (90–100) | A (90–100) | A (90–100) | A (90–100) | B (80–89) | A (90–100)
12 | – | Cc1cc(-c2cccc(OC(F)(F)F)c2)sc1-c1nc(-c2c(F)cccc2Cl)nn1C | G | A (90–100) | A (90–100) | F (less than 50) | B (80–89) | G
13 | – | Cn1nc(-c2c(F)cccc2Cl)nc1-c1cc(-c2ccc(C(F)(F)F)cc2F)sc1Cl | A (90–100) | G | A (90–100) | F (less than 50) | F (less than 50) | F (less than 50)
14 | – | Cc1c(-c2nc(-c3c(F)cccc3Cl)nn2C)csc1-c1ccc(OC(C)C)cc1 | G | G | G | G | A (90–100) | F (less than 50)
15 | – | Cc1c(-c2nc(-c3c(F)cccc3Cl)nn2C)csc1-c1ccc(F)cc1F [drawing 233] | G | B (80–89) | A (90–100) | F (less than 50) | B (80–89) | G
16 | – | Cc1c(-c2nc(-c3c(F)cccc3Cl)nn2C)csc1-c1ccc(OCC(F)(F)F)cc1 | A (90–100) | A (90–100) | A (90–100) | A (90–100) | B (80–89) | A (90–100)
17 | – | CSc1ccc(-c2scc(-c3nc(-c4c(F)cccc4Cl)nn3C)c2C)cc1 | D (60–69) | E (50–59) | G | G | B (80–89) | G
18 | – | Cn1nc(-c2c(F)cccc2Cl)nc1-c1csc(-c2ccc(C(F)(F)F)cc2F)c1 | A (90–100) | C (70–79) | A (90–100) | F (less than 50) | C (70–79) | D (60–69)
19 | – | Cc1cc(-c2ccc(Cl)cc2F)sc1-c1nc(-c2c(F)cccc2Cl)nn1C | A (90–100) | A (90–100) | A (90–100) | G | C (70–79) | F (less than 50)
20 | – | Cc1c(-c2ccc(OC(F)(F)C(F)Cl)cc2)csc1-c1nc(-c2c(F)cccc2Cl)nn1C (stereo not drawn) | A (90–100) | C (70–79) | A (90–100) | A (90–100) | B (80–89) | B (80–89)

Row | Structure (SMILES) | melting point | BAW: activity at 400 ppm against beet armyworm (% control rating) [1] | SM: activity against two-spotted spider mite (% control rating) [2] | CL: activity at 400 ppm against cabbage looper (% control rating) [3] | WF: activity at 200 ppm against whitefly (% control rating) [4] | CA: activity at 50 ppm against cotton aphid (% control rating) [5] | TBW: activity at 400 ppm against tobacco budworm (% control rating) [6]
21 | Cc1c(-c2nc(-c3c(F)cccc3Cl)nn2C)csc1-c1ccc(OC(F)(F)C(F)C(F)(F)F)cc1 (stereo not drawn) [Example 7, 3-(2-Chloro-6-fluorophenyl)-5-{5-[4-(1,1,2,3,3,3-hexafluoropropoxy)phenyl]-4-methylthien-3-yl}-1-methyl-1H-1,2,4-triazole] | 114 to 116 °C | – | – | – | – | – | –
